Values of other authors as cited in PMC10125900 (The Journal of General Physiology, 2023).

Tests used:
[1] = system: GluN3A ABD; conditions: ref Furukawa and Gouaux, 2003; Yao and Mayer, 2006
[2] = target: GluN1/2A–D receptors; conditions: read-out: glycine potency at GluN1, EC50; ref Hansen et al., 2021
[3] = system: GluN1^FA+TL/3A; conditions: read-out: glycine potency at GluN3A, EC50; ref Kvist et al., 2013a

EC50 [2]: 0.1 to 1 µM
EC50 [3]: 60 µM
Compound: NCC(=O)O [glycine]
higher affinity for isolated GluN3A ABD compared to isolated GluN1 ABD [1]: 650 fold
